Like-named read-outs stand apart in the source and are kept apart here.
What was measured:
muscarinic receptors = format: binding, rat; details: Table 14; for Ki: Cheng-Prusoff
α1D adrenoceptors = biological target: T1, α1D adrenoceptors (Rattus norvegicus, UniProt P23944); assay: Phenylephrine-induced contraction inhibition in rat aorta (isometric contraction, Schild KB); format: cell-based; set-up: CR: concentration ratio CR = EC′50/EC50 (with/without antagonist); details: for log KB ± EPM (M) / Kb: Schild equation; for CR ± EPM: ratio of EC50 in presence and absence of test substance
T1 construct: the rat thoracic aorta corresponds to a tissue expressing mainly α1D-adrenoceptors; from tissue; host or cells: rat thoracic aorta rings
T1 sequence (P23944 1-561): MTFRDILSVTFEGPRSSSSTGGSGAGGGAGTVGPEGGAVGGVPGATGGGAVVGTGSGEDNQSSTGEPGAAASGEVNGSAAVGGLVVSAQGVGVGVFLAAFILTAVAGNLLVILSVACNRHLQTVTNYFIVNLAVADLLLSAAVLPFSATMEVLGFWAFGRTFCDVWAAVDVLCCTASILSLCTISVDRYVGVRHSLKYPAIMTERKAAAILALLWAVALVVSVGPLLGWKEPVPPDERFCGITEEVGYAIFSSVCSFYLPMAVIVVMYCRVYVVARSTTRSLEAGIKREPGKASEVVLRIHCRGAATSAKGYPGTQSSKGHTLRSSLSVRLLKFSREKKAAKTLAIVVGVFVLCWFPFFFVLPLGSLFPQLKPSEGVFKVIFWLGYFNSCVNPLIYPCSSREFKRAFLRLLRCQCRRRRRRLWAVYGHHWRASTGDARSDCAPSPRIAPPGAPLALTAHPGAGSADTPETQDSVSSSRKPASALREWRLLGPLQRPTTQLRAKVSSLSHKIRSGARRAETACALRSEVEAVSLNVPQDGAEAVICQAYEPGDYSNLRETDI
Experimental: Isometric contraction assays were performed using Male Wistar rats, aged 2.5-3 months euthanized as described above. The thoracic aorta (tissue enriched in functional α1D adrenergic receptors) was removed, free from adjacent connective and adipose tissues cut in 3 mm segments. […] The aort segments were then subjected to a preload of 20 mN per 60 minutes. After recovery of tissues maintained for 1 hour at rest, it was performed a contraction induced by phenylephrine (PE) 1 μM (α1 adrenergic receptors selective agonist). In this plateau contraction, in order to promote endothelium-dependent relaxation resulting from the activation of the enzyme endothelial nitric oxide synthase (eNOS) and subsequent release of nitric oxide (NO), acetylcholine 1 μM was added. Rings that relaxed at least 80% were considered to have intact endothelium, were used.
Then the preparation was washed and allowed to stand for 1 hour in order to recover the tissue. Then it was performed cumulative curves to phenylephrine (10^−9 to 10^−5 M) in the presence of propranolol 1 μM (β-adrenoceptor blocker receptors) before and after incubation for 1 hour of the LDT's at 10 or 50 nM. In parallel, a temporal control was performed to rule out any artifacts on the measured contraction, where was added only the vehicle (ultrapure water Milli Q®) instead of the substance to be tested. Strictly following the same protocol as the other tanks wherein it was added the LDT's.
The data were scanned in MacLab 8S system connected to the isometric tension transducer Grass FT-03, which recorded the voltage variation in milinewtons (mN) generated throughout the analysis. The digitized data were then analyzed by Chart 3.4/s software program (MacLab, Inc., USA). In the pharmacological screening process, the initial concentration of the used LDT's was 50 nM, which is considered as cut concentration, i.e., substances that have no effect at this concentration would not investigated in this test. […] The ratio of the EC50 value in these two conditions (with and without LDT) matches the third parameter, called “concentration ratio” (or RC).
log(CR−1)=log [B]−log KB (Equation 1)
Where CR=concentration ratio (EC′50/EC50); [B]=‘B’ antagonist concentration; KB=equilibrium dissociation constant of the antagonist ‘B’.
With this in view, the functional tests of contraction in isolated organ model were performed using these tissues. […] Similarly, targeting to rule out any artifacts on the measured contraction, a time control was performed where only the vehicle was added (ultrapure Mili Q® water) in place of the substance to be tested, strictly following the same protocol as the other vats were added to the LDT's (FIG. 1).

[1] = Table 2, 50 nM (62-69) or 10 nM (70, 39)
[2] = Table 2, 50 nM (62-69) or 10 nM (70, 39), read-out: KB
[3] = Table 2, phenylephrine curve in presence of LTD 50 nM (62-69)
[4] = KB (nM), Table 1, test substance at 50 nM (a), 10 nM (b) or 2 nM (c)
[5] = log KB ± EPM (M), Table 1, test substance at 50 nM (a), 10 nM (b) or 2 nM (c)
[6] = Table 2, phenylephrine curve in presence of LTD 10 nM (70 and 39)

Structure (SMILES) | -log 1050 (M) (muscarinic receptors) | Ki (muscarinic receptors) | CR (α1D adrenoceptors; Table 2, LTD 50 nM (62-69)) | log KB ± EPM (M) (α1D adrenoceptors; [1]) | Kb (α1D adrenoceptors; [2]) | log CE50 ± EPM (M) LDT (α1D adrenoceptors; [3]) | Kb (α1D adrenoceptors; [4]) | Kb (α1D adrenoceptors; [5]) | other results
CCCCCCCN1CCN(c2ccccc2OC)CC1 [LDT 67] | 4.2 ± 0.02 M | 21000 nM | 29.5 | −8.74 ± 0.08a M | 1.82 nM | −5.46 ± 0.08 M | – | – | –
COc1ccc(CCN2CCN(c3ccccc3OC)CC2)cc1OC [LDT 5] | 3.97 ± 0.06 M | 108000 nM | – | – | – | – | 0.57 nM | 0.589 nM | CR ± EPM (α1D adrenoceptors; 10 nM): 18.5 ± 2.5
CCCN1CCN(c2ccccc2OC)CC1 [LDT 63] | – | – | 3.1 | −7.59 ± 0.12b M | 31.5 nM | −6.80 ± 0.18 M | – | – | –
COc1cccc(CCN2CCN(c3ccccc3OC)CC2)c1 [LDT 3] | 4.26 ± 0.07 M | 56700 nM | – | – | – | – | 1.78 nM | – | CR ± EPM (α1D adrenoceptors; 50 nM): 29.1 ± 1.8
CCCCCN1CCN(c2ccccc2OC)CC1 [LDT 65] | 3.3 ± 0.08 M | 172000 nM | 7.0 | – | – | −5.89 ± 0.05 M | – | – | Kb (α1D adrenoceptors; KB (nM), Table 2, 50 nM (62-69) or 10 nM (70, 39)): 8.3 nM
CCN1CCN(c2ccccc2O)CC1 [LDT 70] | – | – | – | −7.07 ± 0.08a M | 85.1 nM | – | – | – | CR (α1D adrenoceptors; Table 2, LTD 10 nM (70 and 39)): 123.6; log CE50 ± EPM (M) LDT (α1D adrenoceptors; [6]): −4.86 ± 0.09 M
CCOc1ccccc1N1CCN(CCc2ccc3c(c2)OCO3)CC1 [LDT 8] | 4.48 ± 0.07 M | 33900 nM | – | – | – | – | 0.16 nM | 0.166 nM | CR ± EPM (α1D adrenoceptors; 10 nM): 62.5 ± 15.5
COc1ccc(CCN2CCN(c3ccccc3OC)CC2)cc1 [LDT 4] | – | – | – | – | – | – | 3.14 nM | 3.39 nM | CR ± EPM (α1D adrenoceptors; 50 nM): 16.9 ± 5.5
CCCCCCCCN1CCN(c2ccccc2OC)CC1 [LDT 68] | 4.5 ± 0.05 M | 10800 nM | 12.8 | −8.36 ± 0.05 M | 4.36 nM | −5.81 ± 0.06 M | – | – | –
CCN1CCN(c2ccccc2)CC1 [LDT 39] | – | – | – | −6.85 ± 0.08a M | 141 nM | – | – | – | CR (α1D adrenoceptors; Table 2, LTD 10 nM (70 and 39)): 76.7; log CE50 ± EPM (M) LDT (α1D adrenoceptors; [6]): −4.91 ± 0.05 M
COc1ccccc1N1CCN(CCc2ccccc2)CC1 [LDT 2] | – | – | – | – | – | – | 2.15 nM | 3.09 nM | CR ± EPM (α1D adrenoceptors; 50 nM): 24.3 ± 8.7
CCOc1ccccc1N1CCN(CCc2ccc(OC)c(OC)c2)CC1 [LDT 245] | – | – | – | – | – | – | 1.16 nM | 1.17 nM | –
CCCCN1CCN(c2ccccc2OC)CC1 [LDT 64] | – | – | 6.4 | −7.93 ± 0.13 M | 11.7 nM | −6.18 ± 0.08 M | – | – | –
CCN1CCN(c2ccccc2OC)CC1 [LDT 62] | – | – | 7 | −8.08 ± 0.02 M | 8.3 nM | −6.01 ± 0.06 M | – | – | –
CCOc1ccccc1N1CCN(CC)CC1 [LDT 69] | – | – | 6.9 | −8.06 ± 0.08 M | 8.71 nM | −5.87 ± 0.07 M | – | – | –
CCCCCCN1CCN(c2ccccc2OC)CC1 [LDT 66] | 3.8 ± 0.08 M | 54200 nM | 32 | −8.78 ± 0.06a M | 1.66 nM | −5.29 ± 0.07 M | – | – | –
